Patent US20200121604A1, “SOLID FOSMETPANTOTENATE FORMULATIONS” (Retrophin, Inc., priority 2017, published 2020)

Key:
[1] = test system: wild-type and PanK2-deficient IRM32 cells; test: Half-life of Coenzyme A in cells treated with labeled fosmetpantotenate or pantothenic acid; assay type: cell-based
Method: The half-life of Coenzyme A (CoA) was determined for both wild-type and PanK2-deficient IRM32 cells.
Stable isotopically labeled pantothenic acid (vitamin B5) and fosmetpantotenate, a compound currently in a Phase 3 clinical trial for the treatment of […], were prepared. The PanK2-deficient cell line was treated with labeled fosmetpantotenate (100 μM) while the parental IRM32 (WT) line was treated with labeled pantothenic acid. After 24 h the media was changed to complete media and the cells were harvested at various time points. The fraction of labeled CoA, both free and total, with respect to time 0 was calculated to determine the half-life of CoA under each of these conditions.

[2] = Chemical stability of fosmetpantotenate with and without acetic acid, alone and with MCC, 30° C./65% RH, reverse-phase HPLC; assay type: physicochemical; conditions: weight percent; for Phenol (%): main degradant
Method: Fosmetpantotenate was prepared and purified as in Examples 1 (“with acetic acid”) and Example 28 (“without acid”). Flowability and stability were analyzed for the acetic acid-containing fosmetpantotenate and the “without acid” fosmetpantotenate, alone and when formulated with MCC.
For the MCC formulations, fosmetpantotenate was diluted 1:1 (w:w) with ethyl acetate (HPLC grade, EMD) to generate a solution of viscosity suitable for wet granulation. Porous MCC (Avicel® PH200) was sieved via 120 mesh (125 μm opening) to remove fine particles and then placed in a Freund-Vector GMX-LAB Micro high shear granulator (1 L stainless steel bowl). The impeller speed was kept at 125 rpm during the process. 40 g of 50 wt % fosmetpantotenate ethyl acetate solution (contains 20 g fosmetpantotenate) was added into 80 g substrate at approximately 8 g/min drop-wise via a glass transfer pipette to achieve a 20:80 fosmetpantotenate:MCC ratio (i.e., 20% drug loading by weight). The resulting materials were agitated for an additional 10 minutes followed by tray drying overnight at room temperature to facilitate removal of ethyl acetate.
For the stability analysis, samples of fosmetpantotenate were subdivided and transferred into separate 20 mL clear scintillation vials (about 1 g sample per vial). Closed vials were then placed individually into 5″×7″ foil pouches (CADPAK N-HD, WVTR 0.0005 g/100 in^2/day at 90% RH 40° C.). followed by heat sealing the pouches without desiccant inside. Fosmetpantotenate powder samples were weighed (3 g) and placed directly into the same foil pouches described above, and heat sealed without desiccant inside. Closed samples were stored at 30° C./65% RH and measured after 0, 2, 4, and 8 weeks.
Measurement of impurities was performed by reverse-phase HPLC, utilizing the methods in Table 10. Water:acetonitrile 95:5 (v:v) with 0.005% phosphoric acid was used to extract the API (fosmetpantotenate) from the granulation at concentration of 0.75 mg/mL on an active basis. The sample suspension was ultrasonicated for 10 minutes to ensure complete API extraction followed by filtration using 0.45 μm PTFE filters to remove insoluble materials (i.e., MCC in the granulation samples). The filtrates were then transferred to individual vials and analyzed by HPLC.

[3] = reference substances; cited from earlier work
[4] = Accelerated stability of 10% drug loaded formulations, 25° C./60% RH, total related substances by HPLC; assay type: physicochemical; conditions: 10% drug loading
Method: Fosmetpantotenate was thinned with ethyl acetate (EtOAc) at a 1:1 weight/weight ratio, and then blended with each solid excipient using a mortar and pestle on the 0.1 g scale of fosmetpantotenate, i.e., 0.2 g 50% (fosmetpantotenate/EtOAc)+0.9 g solid. The resulting materials were dried overnight at room temperature in a HEPA hood to remove excess EtOAc.
The formulations were stored under accelerated stability conditions (25° C./60% relative humidity (RH)) for 4 weeks. Some samples were stored in “open” conditions, i.e., exposed to air; other samples were stored in closed containers. The amount of impurities was measured at beginning of storage (t=0), after 2 weeks of storage (t=2 weeks), and after 4 weeks of storage (t=4 weeks). The amount of impurities (total related substances, expressed as a percentage) was determined using the methods described in Example 26 below.
The amount of total impurities was determined via integration of HPLC peak areas within 3 days after the formulations were prepared and before beginning storage (time=0 weeks). The amount of total impurities was measured again after 2 weeks, 4 weeks, 6 weeks, 8 weeks, and 12 weeks of storage. Capsule samples for analysis were prepared by dissolving 5 capsules in a volumetric flask with H2O/ACN 50/50 (v/v) containing 0.1% (v/v) HCOOH. “Drug only” and granulation samples were prepared by adding the sample directly into a volumetric flask and diluting with H2O/ACN 50/50.

[5] = Chemical stability of formulations, 30° C. and 65% relative humidity, closed containers, 12 weeks, total impurities by HPLC; assay type: physicochemical
Method: A stability study was performed to assess the stability of fosmetpantotenate in the following formulations: 1 g fosmetpantotenate (“drug only”; containing approximately 10% acetic acid); 75 mg fosmetpantotenate EA capsules (10% ethyl acetate); 75 mg fosmetpantotenate LG-90 capsules (38% laurylglycol 90); fosmetpantotenate MCC granulation, as described in Example 2; and fosmetpantotenate mannitol granulation, as described in Example 3; and 25:75 fosmetpantotenate:HPMCAS-L Spray Dried Dispersion (SDD) granulation, as described in Example 24. Additionally, fosmetpantotenate without solid excipient or solvent (“drug only”) was stored closed in borosilicate glass vials. Formulations contained in soft gel capsules were stored in closed HDPE bottles, and solid fosmetpantotentate granulation formulations were stored in closed foil-foil packaging. Stability samples were stored at ca. −20° C. (control samples) and at 30° C. and 65% relative humidity in closed containers for 12 weeks.
The amount of total impurities was determined via integration of HPLC peak areas within 3 days after the formulations were prepared and before beginning storage (time=0 weeks). The amount of total impurities was measured again after 2 weeks, 4 weeks, 6 weeks, 8 weeks, and 12 weeks of storage. […]

CC(C)(COP(=O)(O)OP(=O)(O)OC[C@H]1O[C@@H](n2cnc3c(N)ncnc32)[C@H](O)[C@@H]1OP(=O)(O)O)[C@@H](O)C(=O)NCCC(=O)NCCS [CoA, Coenzyme A]
half-life of CoA, PanK2-deficient versus WT cells [1]: somewhat shorter in PanK2-deficient cells than in WT cells

COC(=O)CCNC(=O)[C@H](O)C(C)(C)COP(=O)(N[C@@H](C)C(=O)OC)Oc1ccccc1 (some centres unmarked) [Fosmetpantotenate, no acid]
Phenol (%) ([2]; 30° C./65% RH closed, t = 2 wk): 0.20% | Phenol (%) ([2]; 30° C./65% RH closed, t = 4 wk): 0.42% | Phenol (%) ([2]; 30° C./65% RH closed, t = 8 wk): 1.62% | Phenol (%) ([2]; t = 0): 0.12% | Impurities, excluding phenol (%) ([2]; 30° C./65% RH closed, t = 2 wk): 3.69% | Total impurities (%) ([2]; 30° C./65% RH closed, t = 2 wk): 4.44% | Impurities, excluding phenol (%) ([2]; 30° C./65% RH closed, t = 4 wk): 7.01% | Total impurities (%) ([2]; 30° C./65% RH closed, t = 4 wk): 8.54% | Impurities, excluding phenol (%) ([2]; 30° C./65% RH closed, t = 8 wk): 12.82% | Total impurities (%) ([2]; 30° C./65% RH closed, t = 8 wk): 17.73% | Impurities, excluding phenol (%) ([2]; t = 0): 2.28% | Total impurities (%) ([2]; t = 0): 2.75%

O [Water]
Viscosity (Cp) [3]: 1 Cp

COC(=O)CCNC(=O)[C@H](O)C(C)(C)COP(=O)(N[C@@H](C)C(=O)OC)Oc1ccccc1 (stereo partly drawn) [fosmetpantotenate, methyl 3-((2R)-2-hydroxy-4-(((((S)-1-methoxy-1-oxopropan-2-yl)amino)(phenoxy)phosphoryl)oxy)-3,3-dimethylbutanamido)propanoate]
Total % Related Substances ([4]; 25° C./60% RH, t = 2 weeks, Closed): 5.76% | Total % Related Substances ([4]; 25° C./60% RH, t = 2 weeks, Open): 5.94% | Total % Related Substances ([4]; 25° C./60% RH, t = 4 weeks, Closed): 6.39% | Total % Related Substances ([4]; 25° C./60% RH, t = 4 weeks, Open): 6.29% | Total % Related Substances ([4]; t = 0): 4.80% | average amount of degradation per week [5]: 2.6%
